US20170107577A1, “Determining Cancer Aggressiveness, Prognosis and Responsiveness to Treatment” (THE COUNCIL OF THE QUEENSLAND INSTITUTE OF MEDICAL RESEARCH, priority 2014, published 2017)
Entries after “also recorded” stand apart in the source; their conditions may differ. Read-outs that look alike come from different tables or passages of the source.

Columns and labels:
Format in all cases: cell-based
breast cancer cell lines = assay: Aurora kinase inhibitor sensitivity of breast cancer cell lines by Agro, TN and iBCR score (two published studies)
Method: Two studies which treated breast cancer cell lines with Aurora kinase inhibitors were analyzed based on the Agro, TN and the iBCR score for these cell lines.

[1] = tested on: breast cancer cell lines (TNBC and non-TNBC); assay: Cell survival (CellTiter 96 MTS/MTA assay) of breast cancer cell lines after drug treatment; conditions: 6 days; for survival of cells, combination of TTKi with docetaxel: very low (sub-lethal) doses, TNBC cell lines which overexpress TTK vs cell lines which do not
Method: FIG. 5: Therapeutic targets in the aggressiveness gene list. (A) The TNBC cell lines, MDA-MB-231, SUM159PT and Hs578T were treated with control siRNA (Scrambled, Sc CTRL) or siRNA targeting the specified genes and the survival of these cells was compared on day 6. Data shown is the average from the three cell lines where each cell line was treated in triplicate. * p<0.05, ** p<0.01 and *** <0.001 from One-Way ANOVA analysis performed using GraphPad® Prism. (B) A panel of breast cancer cell lines was used to prepare lysates for immunoblotting of TTK. Tubulin was used as the loading control. (C) Dose response curves for the treatment of breast cancer cell lines in the absence or presence of escalating doses of the TTK inhibitor (TTKi) AZ3146. The survival of cells was measured using the CellTitre® MTS/MTA assay carried out 6 days after treatment. Percentage survival (n=3 per dose) was calculated as the percentage of the signal from treated cells to that from control cells. […]
FIG. 7: TTK associates with aggressive subtypes and is a therapeutic target. […] The survival of cells was measured using the MTS/MTA assay as described in Methods. *** p<0.001 comparing the combination to single agents and to non-TNBC cell lines from Two-Way Anova in GraphPad® Prism. […]
Breast cancer cell lines were obtained from ATCC™ (VA, USA) and cultured as per ATCC™ instructions. […] Six days after siRNA knockdown or after drug treatments the survival of cells in comparison to control was determined using the CellTiter 96® Assay as per manufacturer instructions (Promega Corporation, WI, USA). For immunoblotting, standard protocols were used and membranes were probed with antibodies against TTK (anti-MPS1 mouse monoclonal antibody [N1] ab11108 (Abcam, Cambridge), and γ-tubulin (Sigma-Aldrich®) then developed using chemiluminescence reagent plus (Milipore, MA, USA). Flow cytometry to quantify apoptosis was performed using Annexin V-Alexa488 and 7-AAD (Life Technologies) as per manufacturer instruction using BD FACSCanto II™ flow cytometer (BD Biosciences, CA, USA).

MDA-MB-231 cells = assay: Apoptosis assay by flow cytometry (Annexin V / 7-AAD); conditions: MDA-MB-231, collected at 96 hours
Excerpt: FIG. 7: TTK associates with aggressive subtypes and is a therapeutic target. (A) Kaplan-Meier survival curves are shown for Grade 3 tumors, lymph node positive patients (LN^+) and LN^+ patients with grade 3 tumors. Log-rank Test and p-value were used for these survival curves. For patients with TNBC, and HER2, survival was statistically significant using the Gehan-Breslow-Wilcoxon test (p-values marked by asterisks) which gives more weight to deaths at early time points. […] Survival curves and statistical analyses were performed using GraphPad® Prism. (B) TNBC and non-TNBC cell lines were treated for 6 days with the specified concentrations of docetaxel (doc) alone, TTK inhibitor (TTKi) alone of the combinations. The survival of cells was measured using the MTS/MTA assay as described in Methods. *** p<0.001 comparing the combination to single agents and to non-TNBC cell lines from Two-Way Anova in GraphPad® Prism. (C) MDA-MB-231 cells were treated with docetaxel or TTKi alone or in combination and collected at 96 hours to perform apoptosis assays by flow cytometry. […]
Breast cancer cell lines were obtained from ATCC™ (VA, USA) and cultured as per ATCC™ instructions. […] Six days after siRNA knockdown or after drug treatments the survival of cells in comparison to control was determined using the CellTiter 96® Assay as per manufacturer instructions (Promega Corporation, WI, USA). […]

[2] = high iBCR score breast cancer cell lines, read-out: IC50, high iBCR score cell lines
[3] = low iBCR score breast cancer cell lines, read-out: IC50, low iBCR score cell lines

Row | Compound | IC50 (breast cancer cell lines; [2]) [nM] | IC50 (breast cancer cell lines; [3]) [nM] | survival of cells, combination of TTKi with docetaxel [1] | apoptotic cell death, combination of TTKi with docetaxel (MDA-MB-231 cells) | sensitivity (survival of cells) to the TTK inhibitor ([1]; panel of breast cancer cell lines, TNBC cell lines vs other cell lines)
1 | Cc1csc(-c2nnc(Nc3ccc(Oc4ncccc4-c4ccnc(N)n4)cc3)c3ccccc23)c1 [AMG 900] | 0.3 | 0.7 | – | – | –
2 | Cc1cc(Nc2cc(N3CCN(C)CC3)nc(/C=C/c3ccccc3)n2)n[nH]1 [ENMD-2076] | 1400 | 5900 | – | – | –
3 | CC(=O)O[C@@]12CO[C@@H]1C[C@H](O)[C@@]1(C)C(=O)[C@H](O)C3=C(C)[C@@H](OC(=O)[C@H](O)[C@@H](NC(=O)OC(C)(C)C)c4ccccc4)C[C@@](O)([C@@H](OC(=O)c4ccccc4)[C@H]21)C3(C)C [docetaxel] | – | – | synergized | induced apoptotic cell death | –
4 | AZ3146 | – | – | synergized with docetaxel | induced apoptotic cell death | effective against TNBC cell lines; also recorded: TNBC cell lines were more sensitive
